Values of other authors as cited in US20240180950A1, “Prevention and Treatment of Post-Infection Neurological Disorders and Clotting/Thrombotic Disorders” (priority 2021, published 2024).

Details: 250 mg, 500 mg, 1000 mg, 2000 mg, and 4000 mg per day, per person, in 2 or 3 divided doses

## Nc1nc2c(ncn2[C@@H]2O[C@H](COP(=O)(O)O)[C@@H](O)[C@H]2O)c(=O)[nH]1 [guanosine monophosphate]
  safety of daily human doses of guanosine monophosphate: safe
